Measured values reported in US9006271B2, “5-[5-[2-(3,5-bis(trifluoromethyl)phenyl)-2-methylpropanomethylpropanoylmethylamino]-4-(4-fluoro-2-methylphenyl)]-2-pyridinyl-2-alkyl-prolinamide as NK1 receptor antagonists” (Nerre Therapeutics Limited, priority 2008, dated 2015).
Where a name gives a salt, the structure may show the parent alone.

Assays:
common marmosets = test: marmoset human threat test; type: in vivo, common marmoset; details: for No. jumps (index of locomotor activity): 1 h before test, mean±SEM n=4, vehicle 16.3 ± 1.7
Procedure: For example the marmoset human threat test (Costall et al., 1988 The study utilised in house laboratory-bred male and female common marmosets over 2 years of age, weighing 300-500 g. The animals were caged in couples, in a housing room maintained at 25±1° C., 60% humidity and a 12 hour light/dark cycle (lights on at 0600, with 30 min simulated dawn and twilight). Testing was carried out with the animals situated in the home cage. One hour before the test animals were treated orally with vehicle (0.5% HPMC) or test compound (1 ml/kg). After a wash-out period of at least three days, treatments were reassigned and the study was complete when all animals had received all treatments. Number of specific behavioural postures in response to the human threat and the number of jumps were analysed in this study. The postures recorded in the test were those described by Costall et al (1988). and the number of jumps from the back of the cage to the cage front provided an index of locomotor activity to assess potential for sedation or locomotor stimulation. […] Results are expressed as mean±SEM (n=7). of number of postures and as a mean±SEM (n=4) of number of jumps. Data were subjected to one-way analysis of variance (ANOVA) followed by Dunnett's test, comparing each compound dose with vehicle treatment, using Statistica software (version 8.0) Statistically significant differences with respect to vehicle are indicated as *P<0.01.

NK1 receptor = target: T1, NK1 receptor (Meriones unguiculatus, UniProt Q5DUB1); test: gerbil foot tapping model (GR73632-induced, icv); type: in vivo
T1 construct: from tissue; host or cells: living gerbil, central nervous system (in vivo)
Source text: The ability of the compounds of the invention to penetrate the central nervous system and to bind at the NK1 receptor may be determined using the gerbil foot tapping model as described by Rupniak & Williams, Eur. Jour. of Pharmacol., 1994.
Intracerebroventricular (icv) administration of the NK1 receptor agonist GR73632 (R. M. Hagan et al., Neuropeptides 1991, 19 (2), 127-135) a characteristic hind leg foot tapping (GFT) response in gerbils which can be inhibited by potent NK1 receptor antagonists. The gerbil foot tapping paradigm was carried out as follows; gerbils were dosed with compound of the invention, and following an appropriate pre-treatment time were anaesthetised using isofluorane/oxygen mixture. The skull was then exposed and 5 ul of GR73632 (3 pmol conc.) was injected by insertion of a cuffed 25 G needle to a depth of 4 mm below bregma, directly into the lateral ventricle (intracerebroventricular dosing). Immediately following the injection, gerbils were placed individually into a clear observation box to recover. Upon the gerbil regaining its righting reflex, the duration of repetitive hind foot tapping was recorded over a 5 minute period. […]

T1 sequence (Q5DUB1 whole entry): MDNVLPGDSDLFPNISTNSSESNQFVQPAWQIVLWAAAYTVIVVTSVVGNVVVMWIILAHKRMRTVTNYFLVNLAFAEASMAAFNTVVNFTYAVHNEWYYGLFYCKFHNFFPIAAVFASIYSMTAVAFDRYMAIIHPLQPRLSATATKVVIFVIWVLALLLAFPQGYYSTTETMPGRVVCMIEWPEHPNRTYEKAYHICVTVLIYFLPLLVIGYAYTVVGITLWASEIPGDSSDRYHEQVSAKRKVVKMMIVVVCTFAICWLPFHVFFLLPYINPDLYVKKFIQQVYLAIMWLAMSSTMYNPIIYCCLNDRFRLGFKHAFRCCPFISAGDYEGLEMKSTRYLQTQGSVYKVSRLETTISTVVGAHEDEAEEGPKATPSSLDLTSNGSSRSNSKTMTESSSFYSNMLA

## Cc1cc(F)ccc1-c1cc([C@H]2CC[C@](C)(C(N)=O)N2)ncc1N(C)C(=O)C(C)(C)c1cc(C(F)(F)F)cc(C(F)(F)F)c1 [Example 11, (5R)-5-[5-[{2-[3,5-bis(trifluoromethyl)phenyl]-2-methylpropanoyl}(methyl)amino]-4-(4-fluoro-2-methylphenyl)-2-pyridinyl]-2-methyl-D-prolinamide bis-hydrochloride]
Common marmosets; 0.1 mg/kg oral
  No. jumps (index of locomotor activity): 20.1 ± 2.1
Common marmosets; 0.3 mg/kg oral
  No. jumps (index of locomotor activity): 13.4 ± 2.5
Common marmosets; 1 mg/kg oral
  No. jumps (index of locomotor activity): 13.0 ± 2.1
Common marmosets; 0.1, 0.3 or 1 mg/kg oral
  effect on number of jumps: not accompanied by a reduction in the number of jumps
Common marmosets; 0.1, 0.3 or 1 mg/kg oral, significant at 0.3 and 1 mg/kg (P<0.01)
  effect on number of postures: dose dependent reduction in the number of postures
NK1 receptor; 0.3, 1.0 and 3.0 mg/kg p.o., P<0.01
  GR73632-induced foot tapping behaviour: significantly attenuated
NK1 receptor; plasma, p.o.
  ID50 as plasma concentration: approximately 5 ng/ml
